Source: US20250282768A1 (Janssen Pharmaceutica NV, priority 2022, published 2025)

The molecules below were run on p-IKKa levels in L363 (NIK translocated multiple myeloma) cells (assay: Assay 2: Effect of compounds on p-IKKa levels in L363 (NIK translocated multiple myeloma) cells). Settings: Homo sapiens, L-363, 6 h, read-out: Assay 2 IC50 (nM), p-IKKa (Ser 176/180) in BAFF stimulated L363 cells with MG132, 6 h; average if tested more than once.
Type: cell-based
How it was run: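 Read-out is p-IKKa Ser176/180 by AlphaLISA SureFire in lysates. Cells were BAFF-primed (250 ng/ml) overnight or left unstimulated, then exposed 6 h at 37 °C to compound with MG132 (10 μM), 0.3% DMSO. IC50 from sigmoidal curve fit, normalized between stimulated and unstimulated controls.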
Molecule `CN1CC[C@@](O)(c2cc(-c3cccc(-c4ccnc(NC5CCC5)n4)n3)no2)C1=O` [Example 453, (R)-3-(3-(6-(2-(Cyclobutylamino)pyrimidin-4-yl)pyridin-2-yl)isoxazol-5-yl)-3-hydroxy-1-methylpyrrolidin-2-one] has an IC50 of 50 to 500 nM. Molecule `CN1CC[C@@](O)(c2cc(-c3cccc(-c4ccnc(N[C@H]5CCCOC5)n4)n3)no2)C1=O` [Example 454, (R)-3-Hydroxy-1-methyl-3-(3-(6-(2-(((S)-tetrahydro-2H-pyran-3-yl)amino)pyrimidin-4-yl)pyridin-2-yl)isoxaozl-5-yl)pyrrolidin-2-one] has an IC50 of 50 to 500 nM. With `CN1CC[C@@](O)(c2cc(-c3cccc(-c4ccnc(N[C@@H]5CCCOC5)n4)n3)no2)C1=O` [Example 455, (R)-3-Hydroxy-1-methyl-3-(3-(6-(2-(((R)-tetrahydro-2H-pyran-3-yl)amino)pyrimidin-4-yl)pyridin-2-yl)isoxazol-5-yl)pyrrolidin-2-one] the IC50 was over 500 nM. `CN1CC[C@@](O)(c2cc(-c3cccc(-c4ccnc(N[C@@H]5CCOC5)n4)n3)no2)C1=O` [Example 460, (R)-3-Hydroxy-1-methyl-3-(3-(6-(2-(((R)-tetrahydrofuran-3-yl)amino)pyrimidin-4-yl)pyridin-2-yl)isoxazol-5-yl)pyrrolidin-2-one] gave an IC50 of 50 to 500 nM. For `CNC(=O)c1cc(Nc2nccc(-c3cccc(-c4cc([C@]5(O)CCN(C)C5=O)on4)n3)n2)nn1C(C)C` [Example 464, (R)-3-((4-(6-(5-(3-Hydroxy-1-methyl-2-oxopyrrolidin-3-yl)isoxazol-3-yl)pyridin-2-yl)pyrimidin-2-yl)amino)-1-isopropyl-N-methyl-1H-pyrazole-5-carboxamide], the IC50 was under 50 nM. `CN1CC[C@@](O)(c2cc(-c3cccc(-c4ccnc(NCC5(O)CC5)n4)n3)no2)C1=O` [Example 466, (R)-3-Hydroxy-3-(3-(6-(2-(((1-hydroxycyclopropyl)methyl)amino)pyrimidin-4-yl)pyridin-2-yl)isoxazol-5-yl)-1-mehtylpyrrolidin-2-one] gave an IC50 of over 500 nM. `CN1CCn2nc(Nc3nccc(-c4cccc(-c5cc([C@]6(O)CCN(C)C6=O)on5)n4)n3)cc2C1=O` [Example 467, (R)-2-((4-(6-(5-(3-Hydroxy-1-methyl-2-oxopyrrolidin-3-yl)isoxazol-3-yl)pyridin-2-yl)pyrimidin-2-yl)amino)-5-methyl-6,7-dihydropyrazolo[1,5-a]pyrazin-4(5H)-one] was tested, and the IC50 was 50 to 500 nM. `CN1CC[C@@](O)(c2cc(-c3cccc(-c4ccnc(Nc5cnc6c(c5)COCC6)n4)n3)no2)C1=O` [Example 468, (R)-3-(3-(6-(2-((7,8-Dihydro-5H-pyrano[4,3-b]pyridin-3-yl)amino)pyrimidin-4-yl)pyridin-2-yl)isoxazol-5-yl)-3-hydroxy-1-methylpyrrolidin-2-one] was tested, and the IC50 was under 50 nM. `COC1CCC(Nc2nccc(-c3cccc(-c4cc([C@]5(O)CCN(C)C5=O)on4)n3)n2)CC1` (stereo partly drawn) [Example 469, (R)-3-Hydroxy-3-(3-(6-(2-((4-methoxycyclohexyl)amino)pyrimidin-4-yl)pyridin-2-yl)isoxazol-5-yl)-1-methylpyrrolidin-2-one] showed an IC50 of over 500 nM. Molecule `CCS(=O)(=O)N1CCC(Nc2nccc(-c3cccc(-c4cc([C@]5(O)CCN(C)C5=O)on4)n3)n2)CC1` [Example 470, (R)-3-(3-(6-(2-((1-(Ethylsulfonyl)piperidin-4-yl)amino)pyrimidin-4-yl)pyridin-2-yl)isoxazol-5-yl)-3-hydroxy-1-methylpyrrolidin-2-one] has an IC50 of under 50 nM. `Cc1ncc(C#N)cc1Nc1nccc(-c2cccc(-c3cc([C@]4(O)CCN(C)C4=O)on3)n2)n1` [Example 471, (R)-5-((4-(6-(5-(3-Hydroxy-1-methyl-2-oxopyrrolidin-3-yl)isoxazol-3-yl)pyridin-2-yl)pyrimidin-2-yl)amino)-6-methylnicotinonitrile] showed an IC50 of under 50 nM. Work on `CNC(=O)c1cnc(C)c(Nc2nccc(-c3cccc(-c4cc([C@]5(O)CCN(C)C5=O)on4)n3)n2)c1` [Example 473, (R)-5-((4-(6-(5-(3-Hydroxy-1-methyl-2-oxopyrrolidin-3-yl)isoxazol-3-yl)pyridin-2-yl)pyrimidin-2-yl)amino)-N,6-dimethylnicotinamide] yielded an IC50 of 50 to 500 nM. In the case of `CN1CC[C@@](O)(c2cc(-c3cccc(-c4ccnc(Nc5cnc6c(c5)CCCO6)n4)n3)no2)C1=O` [Example 474, (R)-3-(3-(6-(2-((3,4-Dihydro-2H-pyrano[2,3-b]pyridin-6-yl)amino)pyrimidin-4-yl)pyridin-2-yl)isoxazol-5-yl)-3-hydroxy-1-methylpyrrolidin-2-one], the IC50 was under 50 nM. Work on `COCc1cc(Nc2nccc(-c3cccc(-c4cc([C@]5(O)CCN(C)C5=O)on4)n3)n2)nn1C` [Example 475, (R)-3-Hydroxy-3-(3-(6-(2-((5-(methoxymethyl)-1-methyl-1H-pyrazol-3-yl)amino)pyrimidin-4-yl)pyridin-2-yl)isoxazol-5-yl)-1-methylpyrrolidin-2-one] yielded an IC50 of under 50 nM. For `CN1CC[C@@](O)(c2cc(-c3cccc(-c4ccnc(NC5CCN(S(C)(=O)=O)CC5)n4)n3)no2)C1=O` [Example 476, (R)-3-Hydroxy-1-methyl-3-(3-(6-(2-((1-(methylsulfonyl)piperidin-4-yl)amino)pyrimidin-4-yl)pyridin-2-yl)isoxazol-5-yl)pyrrolidin-2-one], the IC50 was 50 to 500 nM.
